This is an account of results in patent US20240092799A1, “MNK INHIBITORS” (Hepagene Therapeutics (HK) Limited, priority 2020, published 2024).

Molecules are shown by their SMILES. pIC50: −log10 of the molar value. Counter-ions that a name gives are not always drawn.

By pIC50 is commonly meant −log10 of the IC50, conventionally taken in molar units.

The target of one assay is MNK2 (Homo sapiens (Human), UniProt Q9HBH9). As to the kind of experiment: MNK Biochemical Enzymatic Assay (ADP-Glo), MNK2 binding assay. In outline: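 Human MNK1 or MNK2 was preincubated with a 10-point, 1:3 serial dilution of compound for 15 min at 25 °C. Substrate was then added and the reaction ran 60 min at 25 °C. ADP formed was read by ADP-Glo luminescence, and IC50 came from non-linear regression.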
Chain of MNK2 (Q9HBH9 whole entry): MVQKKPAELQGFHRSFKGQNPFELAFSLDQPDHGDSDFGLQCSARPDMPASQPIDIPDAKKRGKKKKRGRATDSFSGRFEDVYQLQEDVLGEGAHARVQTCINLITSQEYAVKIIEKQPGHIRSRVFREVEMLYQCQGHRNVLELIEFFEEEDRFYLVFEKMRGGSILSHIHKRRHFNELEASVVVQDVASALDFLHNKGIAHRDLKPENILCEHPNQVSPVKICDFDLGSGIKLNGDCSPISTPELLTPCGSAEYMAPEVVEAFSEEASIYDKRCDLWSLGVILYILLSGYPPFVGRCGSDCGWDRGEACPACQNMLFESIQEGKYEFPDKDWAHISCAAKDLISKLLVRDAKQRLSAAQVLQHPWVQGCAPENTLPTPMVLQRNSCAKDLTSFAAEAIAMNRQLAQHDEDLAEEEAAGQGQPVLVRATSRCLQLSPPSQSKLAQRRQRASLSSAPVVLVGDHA
Background: ADP-Glo turns the ADP formed in a reaction into a luminescent signal.

In the next assay the test system is TMD-8 cell p-IF4E. Kind of assay: p-eIF4E Signaling Cellular Assay (CisBio HTRF) in TMD-8 cells. The class given is cell-based. As to conditions: Homo sapiens, TMD8, 40 min, 40 min treatment. As for the experimental part:
p-eIF4E Signaling Cellular Assay. Phosphorylated eIF4E is assayed using the CisBio p-Eif4E HTRF assay kit. Reagents and equipment used in the assay are listed below, followed by the protocol.
Cell medium: RPMI 1640+10% FBS+1*PS, TMD-8 were cultured as recommended and assayed in exponential growth phase. • a) Plate 30 μL of cells in 384 white assay plate in appropriate medium and proper cell density (20 k/well) based on Optimization at 37° C. under 5% CO2 atmosphere • b) Dispense 90 nL of compounds diluted in DMSO and treat for 40 min at 37° C. under 5% CO2 atmosphere • c) Remove cell supernatant by flicking the plate • d) Add 16 μL of supplemented lysis buffer (1×) for 30 minutes at RT under shaking • e) Add 4 μL of premixed antibody solutions prepared in the detection buffer. Cover the plate with a plate sealer. Incubate 0/N at RT • f) Read the fluorescence emission at 665 nm and 620 nm on Envision • g) Data analysis • (1) Ratio […] signal is calculated for each well • (2) % Inhibition is calculated as follow:
% inhibition=100−(Signalcmpd-SignalAve_PC)/(SignalAve_VC-SignalAve_PC)×100. • (3) Calculate IC50 and Plot effect-dose curve of cmpds:
Calculate IC50 by fitting % Inhibition values and log of compound concentrations to nonlinear regression (dose response−variable slope) with Graphpad 8.0.
Y=Bottom+(Top−Bottom)/(1+10^((Log IC50−X)*Hill Slope)) • X: log of Inhibitor concentration; Y: % Inhibition.
(In general: TR-FRET usually uses a lanthanide donor and a delayed reading to cut background.)

For the compound `Cc1cc(Nc2cc(Nc3ccc(N4CCN(C)CC4)cn3)ncn2)[n+]([O-])c2c1C(=O)NC21CCCCC1` [Compound XXIX-AO, 4′-methyl-2′-[(6-{[5-(4-methylpiperazin-1-yl)pyridin-2-yl]amino}pyrimidin-4-yl)amino]-5′-oxo-5′,6′-dihydrospiro[cyclohexane-1,7′-pyrrolo[3,4-b]pyridin]-1′-ium-1′-olate], the pIC50 on MNK2 and in the assay on TMD-8 cell p-IF4E was 8.00 to 10.00 in each case.
In the case of `Cc1cc(Nc2cc(N[C@H]3C[C@@H](O)C3)ncn2)[n+]([O-])c2c1C(=O)NC21CCCCC1` [Compound XXIX-AP, 2′-((6-(((cis)-3-hydroxycyclobutyl)amino)pyrimidin-4-yl)amino)-4′-methyl-5′-oxo-5′,6′-dihydrospiro[cyclohexane-1,7′-pyrrolo[3,4-b]pyridine] 1′-oxide], the pIC50 on MNK2 was 8.00 to 10.00; with TMD-8 cell p-IF4E, 7.00 to 8.00.
On to `Cc1cc(Nc2cc(Nc3cc[nH]n3)ncn2)[n+]([O-])c2c1C(=O)NC21CCCCC1` [Compound XXIX-AS, 2′-((6-((1H-pyrazol-3-yl)amino)pyrimidin-4-yl)amino)-4′-methyl-5′-oxo-5′,6′-dihydrospiro[cyclohexane-1,7′-pyrrolo[3,4-b]pyridine] 1′-oxide], for which the pIC50 on MNK2 and in the assay on TMD-8 cell p-IF4E was 8.00 to 10.00 throughout.
Turning to `Cc1cc(Nc2cc(Nc3ccn(CCO)n3)ncn2)[n+]([O-])c2c1C(=O)NC21CCCCC1` [Compound XXIX-AT, 2′-((6-((1-(2-hydroxyethyl)-1H-pyrazol-3-yl)amino)pyrimidin-4-yl)amino)-4′-methyl-5′-oxo-5′,6′-dihydrospiro[cyclohexane-1,7′-pyrrolo[3,4-b]pyridine] 1′-oxide], the pIC50 on MNK2 and with TMD-8 cell p-IF4E was 8.00 to 10.00 in each case.
`Cc1cc(Nc2cc(Nc3cccc(CO)n3)ncn2)[n+]([O-])c2c1C(=O)NC21CCCCC1` [Compound XXIX-AU, 2′-((6-((6-(hydroxymethyl)pyridin-2-yl)amino)pyrimidin-4-yl)amino)-4′-methyl-5′-oxo-5′,6′-dihydrospiro[cyclohexane-1,7′-pyrrolo[3,4-b]pyridine] 1′-oxide formate salt]: the pIC50 on MNK2 and with TMD-8 cell p-IF4E was 8.00 to 10.00 each time.
As to `Cc1cc(Nc2cc(NC(=O)C3CCCO3)ncn2)[n+]([O-])c2c1C(=O)NC21CCCCC1` (stereo not shown) [Compound XXIX-AW, 4′-methyl-5′-oxo-2′-((6-(tetrahydrofuran-2-carboxamido)pyrimidin-4-yl)amino)-5′,6′-dihydrospiro[cyclohexane-1,7′-pyrrolo[3,4-b]pyridine] 1′-oxide], the pIC50 was 8.00 to 10.00 on MNK2 and 7.00 to 8.00 with TMD-8 cell p-IF4E.
As for `Cc1cc(Nc2cc(Nc3ccccn3)ncn2)[n+]([O-])c2c1C(=O)NC21CCCCC1` [Compound XXIX-D, 4′-methyl-5′-oxo-2′-((6-(pyridin-2-ylamino)pyrimidin-4-yl)amino)-5′,6′-dihydrospiro[cyclohexane-1,7′-pyrrolo[3,4-b]pyridine] 1′-oxide], the pIC50 on MNK2 and with TMD-8 cell p-IF4E was 8.00 to 10.00 each time.
On to `Cc1cc(Nc2cc(Nc3ccn(C)n3)ncn2)[n+]([O-])c2c1C(=O)NC21CCCCC1` [Compound XXIX-K, 4′-methyl-2′-((6-((1-methyl-1H-pyrazol-3-yl)amino)pyrimidin-4-yl)amino)-5′-oxo-5′,6′-dihydrospiro[cyclohexane-1,7′-pyrrolo[3,4-b]pyridine] 1′-oxide], for which the pIC50 on MNK2 and with TMD-8 cell p-IF4E was 8.00 to 10.00 in each case.
In the case of `COc1c(N)ncnc1Nc1cc(C)c2c([n+]1[O-])C1(CCCCC1)NC2=O` [Compound XXIX-Z, 2′-((6-amino-5-methoxypyrimidin-4-yl)amino)-4′-methyl-5′-oxo-5′,6′-dihydrospiro[cyclohexane-1,7′-pyrrolo[3,4-b]pyridine] 1′-oxide], the pIC50 on MNK2 and in the assay on TMD-8 cell p-IF4E was 8.00 to 10.00 throughout.
On to `CN(C)[C@H]1CCN(C(=O)C2CCc3c(sc4ncnc(Nc5cc6c(s5)C(=O)NC65CCCCC5)c34)C2)C1` (stereo partly drawn) [Compound XXV, 2′-((7-((S)-3-(Dimethylamino)pyrrolidine-1-carbonyl)-5,6,7,8-tetrahydrobenzo[4,5]thieno[2,3-d]pyrimidin-4-yl)amino)spiro[cyclohexane-1,4′-thieno[2,3-c]pyrrol]-6′(5′H)-one], for which the results for the pIC50 on MNK2 and in the assay on TMD-8 cell p-IF4E were 7.00 to 8.00 and 6.00 to 7.00, respectively.
As to `C[C@@H]1COCCN1C(=O)C1CCc2c(sc3ncnc(Nc4cc5c(s4)C(=O)NC54CCCCC4)c23)C1` (stereo partly drawn) [Compound XXV-C, 2′-((7-((R)-3-Methylmorpholine-4-carbonyl)-5,6,7,8-tetrahydrobenzo[4,5]thieno[2,3-d]pyrimidin-4-yl)amino)spiro[cyclohexane-1,4′-thieno[2,3-c]pyrrol]-6′(5′H)-one], the pIC50 is 7.00 to 8.00 at MNK2 and 6.00 to 7.00 in the assay on TMD-8 cell p-IF4E.
Regarding `O=C1NC2(CCCCC2)c2nc(Nc3cc(N[C@H]4CCOC4)ncn3)sc21` [Compound XXVIII, (S)-2′-((6-((tetrahydrofuran-3-yl)amino)pyrimidin-4-yl)amino)spiro[cyclohexane-1,4′-pyrrolo[3,4-d]thiazol]-6′(5′H)-one], the pIC50 on MNK2 was 8.00 to 10.00; in the assay on TMD-8 cell p-IF4E, 7.00 to 8.00.
Turning to `O=C1NC2(CCCCC2)c2nc(Nc3ncnc4[nH]ccc34)sc21` [Compound XXVIII-A, 2′-((7H-pyrrolo[2,3-d]pyrimidin-4-yl)amino)spiro[cyclohexane-1,4′-pyrrolo[3,4-d]thiazol]-6′(5′H)-one], the pIC50 on MNK2 and with TMD-8 cell p-IF4E was 8.00 to 10.00 in each case.
As for `O=C1NC2(CCCCC2)c2nc(Nc3cc(Nc4ccccn4)ncn3)sc21` [Compound XXVIII-B, 2′-((6-(pyridin-2-ylamino)pyrimidin-4-yl)amino)spiro[cyclohexane-1,4′-pyrrolo[3,4-d]thiazol]-6′(5′H)-one], the values for the pIC50 on MNK2 and in the assay with TMD-8 cell p-IF4E were 8.00 to 10.00 and 7.00 to 8.00, respectively.
In the same order, the values of `O=C1NC2(CCCCC2)c2nc(Nc3cc(NC(=O)C4CCCC4)ncn3)sc21` [Compound XXVIII-C, N-(6-((6′-oxo-5′,6′-dihydrospiro[cyclohexane-1,4′-pyrrolo[3,4-d]thiazol]-2′-yl)amino)pyrimidin-4-yl)cyclopentanecarboxamide] are 8.00 to 10.00 and 7.00 to 8.00.
With `COc1c(N)ncnc1Nc1nc2c(s1)C(=O)NC21CCCCC1` [Compound XXVIII-G, 2′-((6-amino-5-methoxypyrimidin-4-yl)amino)spiro[cyclohexane-1,4′-pyrrolo[3,4-d]thiazol]-6′(5′H)-one], the negative-log IC50 (pIC50) was 8.00 to 10.00 at MNK2 and 7.00 to 8.00 with TMD-8 cell p-IF4E.
On to `O=C1NC2(CCCCC2)c2nc(Nc3ccnc(N[C@H]4CCOC4)c3)sc21` [Compound XXVIII-H, (S)-2′-((2-((tetrahydrofuran-3-yl)amino)pyridin-4-yl)amino)spiro[cyclohexane-1,4′-pyrrolo[3,4-d]thiazol]-6′(5′H)-one], for which the pIC50 at MNK2 was 8.00 to 10.00; in the assay on TMD-8 cell p-IF4E, 7.00 to 8.00.
Regarding `Cn1cnc(Nc2cc(Nc3nc4c(s3)C(=O)NC43CCCCC3)ncn2)n1` [Compound XXVIII-K, 2′-((6-((1-methyl-1H-1,2,4-triazol-3-yl)amino)pyrimidin-4-yl)amino)spiro[cyclohexane-1,4′-pyrrolo[3,4-d]thiazol]-6′(5′H)-one], the figures for the pIC50 at MNK2 and with TMD-8 cell p-IF4E were 8.00 to 10.00 and 7.00 to 8.00, respectively.
Turning to `CNC(=O)Nc1cc(Nc2nc3c(s2)C(=O)NC32CCCCC2)ncn1` [Compound XXVIII-L, 1-methyl-3-(6-((6′-oxo-5′,6′-dihydrospiro[cyclohexane-1,4′-pyrrolo[3,4-d]thiazol]-2′-yl)amino)pyrimidin-4-yl)urea], the pIC50 at MNK2 was 8.00 to 10.00; in the assay on TMD-8 cell p-IF4E, 6.00 to 7.00.
As for `Cn1ccc(Nc2cc(Nc3nc4c(s3)C(=O)NC43CCCCC3)ncn2)n1` [Compound XXVIII-M, 2′-((6-((1-methyl-1H-pyrazol-3-yl)amino)pyrimidin-4-yl)amino)spiro[cyclohexane-1,4′-pyrrolo[3,4-d]thiazol]-6′(5′H)-one], the pIC50 on MNK2 and in the assay on TMD-8 cell p-IF4E was 8.00 to 10.00 throughout.
In the case of `O=C1NC2(CCCCC2)c2nc(Nc3cc(N[C@H]4C[C@@H](O)C4)ncn3)sc21` [Compound XXVIII-O, Cis-2′-((6-(((1s,3s)-3-hydroxycyclobutyl)amino)pyrimidin-4-yl)amino)spiro[cyclohexane-1,4′-pyrrolo[3,4-d]thiazol]-6′(5′H)-one], the pIC50 was 8.00 to 10.00 at MNK2 and 6.00 to 7.00 with TMD-8 cell p-IF4E.
`CC(=O)N(C)c1ccnc(Nc2cc(Nc3nc4c(s3)C(=O)NC43CCCCC3)ncn2)c1` [Compound XXVIII-P, N-methyl-N-(2-((6-((6′-oxo-5′,6′-dihydrospiro[cyclohexane-1,4′-pyrrolo[3,4-d]thiazol]-2′-yl)amino)pyrimidin-4-yl)amino)pyridin-4-yl)acetamide]: the results for the pIC50 on MNK2 and in the assay with TMD-8 cell p-IF4E were 8.00 to 10.00 and 7.00 to 8.00, respectively.
On the same counts, the results for `O=C1NC2(CCCCC2)c2nc(Nc3cc(Nc4ccc(N5CCOCC5)cn4)ncn3)sc21` [Compound XXVIII-Q, 2′-((6-((5-morpholinopyridin-2-yl)amino)pyrimidin-4-yl)amino)spiro[cyclohexane-1,4′-pyrrolo[3,4-d]thiazol]-6′(5′H)-one] are 8.00 to 10.00 and 8.00 to 10.00.
